Measurements from US11666048B2, “Treatment for plants in conjunction with harvesting” (CORBET SCIENTIFIC, LLC, priority 2017, dated 2023).
Where “and” joins values, the source holds several entries; their conditions need not be identical. Equal entries are not always repeated. Entries after “also recorded” stand apart in the source; their conditions may differ.

Experiments:
harvested grapefruit [1] = test: Post-harvest water-loss protection in fruit (Example 5); type: in vivo; conditions: ambient storage
Description: Grapefruit trees were separated into three groups. […] Spray treatment formulations were applied using a commercial air-blast sprayer (250 gallons/acre). Size 40 fruit were harvested in quadruplicate, washed, and waxed on Day 0. The washed and waxed fruit as then stored at ambient conditions (approximately 70-75° F.) for 40 days. Size 40 fruit harvested on Day 1 were left unwashed and unwaxed prior to storage (unwashed and unwaxed samples). To test the ability of the aqueous formulation of the present invention to protect harvested fruit from water loss, stored fruit were observed 8 and 20 days after harvest.

harvested grapefruit [2] = test: Post-harvest disease protection in fruit: healthy fruit, total decay, stem-end rind breakdown (Example 5); type: in vivo; conditions: after 40 days in storage
Description: (§1) Grapefruit trees were separated into three groups. […] Spray treatment formulations were applied using a commercial air-blast sprayer (250 gallons/acre). Size 40 fruit were harvested in quadruplicate, washed, and waxed on Day 0. The washed and waxed fruit as then stored at ambient conditions (approximately 70-75° F.) for 40 days. Size 40 fruit harvested on Day 1 were left unwashed and unwaxed prior to storage (unwashed and unwaxed samples). After 40 days in storage, no significant differences were observed between treated and untreated fruit in terms of the percentage of healthy fruit and the percentage of total decay in the two groups.

Diplodia = test: Post-harvest disease protection in fruit: Diplodia (Example 5); type: in vivo, grapefruit; conditions: after 40 days in storage
Description: as §1

Anthracnose = test: Post-harvest disease protection in fruit: Anthracnose (Example 5); type: in vivo, grapefruit; conditions: after 40 days in storage
Description: as §1

Green Mold = test: Post-harvest disease protection in fruit: Green Mold (Example 5); type: in vivo, grapefruit; conditions: after 40 days in storage
Description: as §1

harvested grapefruit [3] = test: Water retention and disease protection in harvested grapefruit, pre-harvest spray (Example 3); type: in vivo
Description: Grapefruit trees were separated into three groups. Fruit in Groups 2 and 3 were treated prior to harvesting. Group 3 was treated with an aqueous treatment formulation comprising 95.70 wt % water, 2.00 wt % ACUSOL® 823, 0.10 wt % PVA (100,000 MW), 0.10 wt % ZnSO4 monohydrate, 0.10 wt % Antifoam® 8810, and 2.00 wt % TEA. […] Group 1 was untreated and served as a control. Groups 2 and 3 fruit were spray treated on Day −14 in the grove. Fruit was not de-greened. Fruit was weighed on Day 0, prior to packaging. Size 27-36 fruit were packed in honeycomb cartons, whereas size 40 fruit was packed in regular 4/5 cartons. Packed fruit was inspected on Day 68.

[4] = average over cartons of the group

O=P([O-])([O-])O.[K+].[K+] [DKP, di-potassium phosphate]
Wt. Loss (%) Day 8 (harvested grapefruit [1]; not washed and waxed): 1.43 a %
Wt. Loss (%) Day 20 (harvested grapefruit [1]; not washed and waxed): 4.08 a %
Wt. Loss (%) Day 8 (harvested grapefruit [1]; washed and waxed): 1.11 c %
Wt. Loss (%) Day 20 (harvested grapefruit [1]; washed and waxed): 3.89 a %
SERB (stem-end rind breakdown) (%) (harvested grapefruit [2]): 7.15% and 7.15 ab %
Total Decay (%) (harvested grapefruit [2]): 16.31%
Healthy (%) (harvested grapefruit [2]; washed and waxed fruit): 77.15%
Disease Diplodia (%) (Diplodia): 6.5%
Disease Anthracnose (%) (Anthracnose): 5.9%
Disease Green Mold (%) (Green Mold): 3.96%

O=P([O-])(O)O.[K+] [MKP, mono potassium phosphate]
Average Weight Difference (%) (harvested grapefruit [3]; [4]): 12.5%
Average Δ Weight (lbs) (harvested grapefruit [3]; [4]): 5 lbs
Weight Difference (%) (harvested grapefruit [3]; fruit size 27, Day 0 to Day 54): 11%
Δ Weight (lbs) (harvested grapefruit [3]; fruit size 27, Day 0 to Day 54): 4.4 lbs and 4.6 lbs
Weight Difference (%) (harvested grapefruit [3]; fruit size 32, Day 0 to Day 54): 14% and 13%
Δ Weight (lbs) (harvested grapefruit [3]; fruit size 32, Day 0 to Day 54): 5.6 lbs and 5.2 lbs
Disease (puncture) (harvested grapefruit [3]; fruit size 32, fruit per carton at inspection): 1 puncture
Weight Difference (%) (harvested grapefruit [3]; fruit size 36, Day 0 to Day 54): 14%
Δ Weight (lbs) (harvested grapefruit [3]; fruit size 36, Day 0 to Day 54): 5.6 lbs and 5.8 lbs
Disease (harvested grapefruit [3]; fruit size 36, fruit per carton at inspection): 4 rot and 3 rot
Weight Difference (%) (harvested grapefruit [3]; fruit size 40, Day 0 to Day 54): 12% and 11%
Δ Weight (lbs) (harvested grapefruit [3]; fruit size 40, Day 0 to Day 54): 4.6 lbs and 4.2 lbs
Disease (harvested grapefruit [3]; fruit size 40, fruit per carton at inspection): 1 rot
shine and firmness compared with control (harvested grapefruit [3]; packed fruit at inspection): negligible
Fruit Condition (harvested grapefruit [3]; remarks printed beside carton lines, probably for the whole group, footnote: ⅔ fruit per carton were very firm): no shine; also recorded: Like control; also recorded: very soft
